How the values were obtained:
PARP1 [1] = target: T1, PARP1 (Homo sapiens, UniProt P09874); test: PARP1 activity, commercial assay (Trevigen), histone-coated wells with active PARP1 enzyme and NAD+; format: biochemical; conditions: active PARP1 enzyme; triplicate; FIG. 4
Experimental: The capacity to inhibit PARP1 was determined using a commercial assay (Trevigen, Gaithersburg, Md.) as per manufacturer's direction.

[2] = system: mouse embryo fibroblasts (MEF); test: γ-irradiation-induced mitochondrial DNA damage in MEFs (qPCR); format: cell-based; conditions: 20 μM for 30 min prior to 10 Gy IR
Experimental: PARylation of mtDNA repair enzymes, polymerase-γ and exo/endonucleaseG, by mt-PARP1 is thought interfere with normal mtDNA repair. […] Cells were harvested and DNA extracted 4 and 24 h post-IR. […] ANOVA, *p<0.05, **p<0.01.

[3] = Mitochondrial enrichment: LC-MS quantification in mitochondria- and nuclear-enriched fractions of neurons; format: in vitro ADME, rat; conditions: neurons exposed to 100 nM for 24 h; mean±SD; n=3
Experimental: Water (150 μL) was added and the solution was vortexed (15 sec) and set aside to equilibrate at room temperature (30 min). The resulting suspension was placed in an Eppendorf Centrifuge 5702 (4400 rpm, 20° C.) for 12 min. The organic layer was extracted and filtered through a 0.45 μm filter for analysis.
The concentration was reported as pM concentration of XJB-Veliparib per 10 μg of protein with corresponding standard deviation values.
To verify mitochondrial enrichment, rat primary cortical neurons were exposed to 100 nM XJB-veliparib for 24 h. Mitochondria- and nuclear-enriched subcellular fractions were obtained and verified by western blot using antibodies against the cytochrome oxidase subunit Vα (COX Vα) and histone H3, respectively (FIG. 6A). In mitochondria-enriched fractions, the LCMS analysis of XJB-veliparib indicated a concentration of 116±55 pmol/10 μg protein compared with 29±27 pmol/10 μg protein in nuclear-enriched fractions (FIG. 6B; mean±standard deviation [SD]; n=3 independent experiments).

[4] = system: mouse embryo fibroblasts (MEF); test: IR-induced cell death in mouse embryo fibroblasts, Annexin V/PI flow cytometry; format: cell-based; conditions: for survival after IR: 10, 20 μM for 30 min prior to 10 Gy IR, survival at 48 h, mean±SD, vehicle 68.4%±2.2
Experimental: MEF cells were treated with 10, 20 μM XJB-veliparib for 30 min prior to 10 Gy IR (309 R/min, Cs137 source), media was changed to drugless media 4 h post-IR. Survival was assessed at 48 h by Annexin V-FTIC/PI flow cytometry. […] Mean±SD, *p<0.05, ****p<0.0001.

primary cortical neurons [5] = test: Mitochondrial and cytosolic NAD+ concentration in primary cortical neurons after OGD; format: cell-based, rat; conditions: for mitochondrial NAD+ stores after OGD: 10 nM before OGD, measured 24 h after OGD
Experimental: FIG. 8. Mitochondrial and cytosolic NAD^+ concentration in primary cortical neurons after OGD. […] NAD+ concentration measured 24 h after OGD. Assay performed in duplicate.
(§1) To model ischemia-reperfusion in vitro, culture medium was replaced with a pre-equilibrated low glucose (0.5 mM) medium. Neurons were transferred into a sealed hypoxic chamber (Coy Laboratory Products Inc., Grass Lake, Mich.) set to an atmosphere of 95% N2 with 5% CO2 at 37° C. for 2 h. After OGD neurons were removed from the chamber and returned to the incubator.

HT22 cells = test: Glutamate-induced ferroptotic cell death in HT22 cells, LDH release; format: cell-based, mouse; conditions: 5 mM glutamate; for effect on glutamate-induced ferroptosis: LDH release at 24 h
Experimental: HT22 cells were cultured at 37° C. in Dulbecco's modified Eagle's medium (DMEM) (Invitrogen Inc., Carlsbad, Calif.) supplemented with 10% fetal bovine serum (FBS) (Thermo Fisher Scientific, San Jose, Calif.) and 1% penicillin-streptomycin (ATCC, Manassas, Va.) in an atmosphere containing 5% CO2. Cells were cultured for 24 to 48 hr before use.

primary cortical neurons [6] = test: Cellular localization of poly(ADP-ribose) polymers after OGD (immunofluorescence, confocal and STED microscopy); format: cell-based, rat; conditions: 10 nM, OGD 2 h; for PAR immunofluorescence after OGD (confocal): triplicate
Experimental: Neurons grown on poly-D-lysine coated glass coverslips were fixed in 2% paraformaldehyde and permeabilized with TritonX-100. Coverslips were then incubated in a 1:200 dilution of mouse monoclonal antibody against PAR (SA216, ENzo Life Sciences, Inc., Farmingdale, N.Y.) and an antibody against TOMM20 (Abcam, Cambridge, Mass.) followed by incubation in the appropriate secondary antibodies. Cell nuclei were labelled with 4′,6 diamidino-2-phenylindole (DAPI) for standard confocal microscopy or DRAQ5 (both from ThermoFisher Scientific, Waltham, Mass.) for STED microscopy. Images were collected using an Olympus Fluoview 1000 confocal microscope (Olympus Corporation of the Americas, Center Valley, Pa.).
For STED imaging a Leica TCS SP8 super resolution STED microscope with a pulsed white light laser and AOBS detection system was used (Leica Microsystems, Wetzlar, Germany). Images were collected using the 775 nm STED laser line with 30% 3D STED using the Leica STED WHITE oil objective lens (HC PL APO 100×/1.40 OIL) with a 200 Hz scan speed and 2× line averaging. Pixel size was set to 45 nm/pixel, step size was set to […], and pinhole was set at 132.8 μm (0.875 AU). TOMM20 was visualized using Alexa Fluor 555, exciting at 553 nm and detecting between 558-599 nm and temporally gate between […]. PAR was visualized with Alexa Fluor 594, exciting at 598 nm and detecting between 603-666 nm and temporally gated between 0.3-6.0 nsec. DRAQ5 (ThermoFisher Scientific, Waltham, Mass.) was excited at 662 and detected between 667 to 780 nm and temporally gated between 0.3-6.0 nsec. Channels were collected between stacks, sequentially.
The cellular localization of poly(ADP-ribose) (PAR) polymers, a footprint of PARP activation, was examined in primary cortical neurons after OGD using immunohistochemistry and confocal microscopy.
To evaluate the impact of XJB-veliparib on mitochondrial structure after OGD, we used stimulation emission depletion (STED) microscopy and immunohistochemistry. Primary rat cortical neurons were treated with 10 nM XJB-veliparib or vehicle and then exposed to OGD for 2 h.

PARP1 [7] = target: T1, PARP1; test: PARP1 inhibitory capacity of mitochondria-enriched fractions spiked with active PARP1 enzyme; format: biochemical; conditions: triplicate
[8] = system: rat primary cortical neurons; test: Cytotoxicity in rat primary cortical neurons, LDH release at 24 h; conditions: for concentration at which neurotoxicity (defined as >10% cell death) was seen: n=6/group
Experimental: Cytotoxicity was assessed by LDH release from dying neurons at 24 h.

primary cortical neurons [9] = test: Oxygen-glucose deprivation (OGD) in primary cortical neurons, LDH release; format: cell-based, rat
Experimental: as §1
To determine whether mitochondria-targeting XJB-veliparib can promote neuronal survival in ischemia-like conditions in vitro, primary cortical neurons at 12 DIV were subjected to OGD. Cultured neurons were exposed to a hypoxic and glucose-depleted environment for 2 h, followed by normal culture conditions for 24 h to mimic ischemia/reperfusion injury. […] Specifically, 10 nM XJB-veliparib reduced cell death by 67% (LDH release 12.4±3.1% vs. 38.0±2.5%, 10 nM XJB-veliparib vs. vehicle; mean±SD; P<0.05).

T1 sequence (P09874 whole entry): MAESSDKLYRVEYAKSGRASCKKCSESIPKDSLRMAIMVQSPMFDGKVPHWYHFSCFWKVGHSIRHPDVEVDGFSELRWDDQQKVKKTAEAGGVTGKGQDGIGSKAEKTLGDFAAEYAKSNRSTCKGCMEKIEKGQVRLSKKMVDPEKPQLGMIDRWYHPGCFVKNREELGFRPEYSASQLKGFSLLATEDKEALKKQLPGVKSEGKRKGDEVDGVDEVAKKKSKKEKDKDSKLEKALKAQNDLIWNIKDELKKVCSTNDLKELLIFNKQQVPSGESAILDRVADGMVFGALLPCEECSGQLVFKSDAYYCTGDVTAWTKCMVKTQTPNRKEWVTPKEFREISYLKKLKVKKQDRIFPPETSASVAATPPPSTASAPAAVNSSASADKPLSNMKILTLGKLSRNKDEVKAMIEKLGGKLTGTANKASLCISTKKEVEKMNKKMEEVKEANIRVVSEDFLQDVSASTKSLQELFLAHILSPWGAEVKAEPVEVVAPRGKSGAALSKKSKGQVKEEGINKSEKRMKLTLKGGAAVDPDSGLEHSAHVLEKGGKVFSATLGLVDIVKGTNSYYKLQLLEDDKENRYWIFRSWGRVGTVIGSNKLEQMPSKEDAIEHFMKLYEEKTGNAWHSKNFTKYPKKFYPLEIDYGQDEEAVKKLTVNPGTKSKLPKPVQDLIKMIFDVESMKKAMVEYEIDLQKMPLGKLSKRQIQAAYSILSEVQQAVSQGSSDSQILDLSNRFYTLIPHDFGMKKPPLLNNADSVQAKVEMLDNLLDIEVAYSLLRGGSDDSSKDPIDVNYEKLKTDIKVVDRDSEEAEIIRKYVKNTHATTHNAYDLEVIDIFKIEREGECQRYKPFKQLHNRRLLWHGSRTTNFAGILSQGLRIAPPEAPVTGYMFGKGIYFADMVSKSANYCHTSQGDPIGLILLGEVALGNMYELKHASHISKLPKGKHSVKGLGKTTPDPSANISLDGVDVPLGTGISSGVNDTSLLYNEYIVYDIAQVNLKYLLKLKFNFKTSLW

Structure (SMILES): CC(C)C[C@@H](/C=C/[C@H](Cc1ccccc1)C(=O)N1CCC[C@H]1C(=O)N[C@H](C(=O)N[C@@H](CCCNC(=O)OCc1ccccc1)C(=O)NCCCNC(=O)c1cccc2[nH]c([C@]3(C)CCCN3)nc12)C(C)C)NC(=O)OC(C)(C)C [XJB-Veliparib, tert-Butyl ((4S,7S, E)-7-benzyl-2-methyl-8-((S)-2-(((S)-3-methyl-1-(((S)-15-(2-((S)-2-methylpyrrolidin-2-yl)-1H-benzo[d]imidazol-4-yl)-3,9,15-trioxo-1-phenyl-2-oxa-4, 10,14-triazapentadecan-8-yl)amino)-1-oxobutan-2-yl)carbamoyl)pyrrolidin-1-yl)-8-oxooct-5-en-4-yl)carbamate]
- PARP1 inhibition compared with untargeted veliparib (PARP1 [1]): similar
- number of PCR-detectable mtDNA lesions following γ-IR ([2]; DNA extracted 4 and 24 h post-IR, vehicle 0.48±0.03): 0.30±0.03
- concentration in mitochondria-enriched fractions [3]: 116±55 pmol/10 μg protein
- concentration in nuclear-enriched fractions [3]: 29±27 pmol/10 μg protein
- concentration at which radiation damage was decreased [4]: ≥ 5 µM
- survival after IR [4]: 90.1%
- mitochondrial NAD+ stores after OGD (primary cortical neurons [5]): preserve mitochondrial NAD^+ stores
- efflux of NAD+ from the mitochondria to the cytosol (primary cortical neurons [5]; 10 nM, 24 h after OGD): prevented efflux of NAD^+ from the mitochondria to the cytosol
- efficacy vs. veliparib at higher concentrations (HT22 cells; 10 μM, LDH at 24 h): slightly more effective than veliparib
- effect on glutamate-induced ferroptosis (HT22 cells): inhibit glutamate-induced ferroptosis
- mitochondrial architecture after OGD (STED) (primary cortical neurons [6]): partially preserved
- PAR immunoreactivity after OGD vs. vehicle (STED) (primary cortical neurons [6]; 1 h): reduced
- PAR immunofluorescence after OGD (confocal) (primary cortical neurons [6]): reduction of PAR immunofluorescence
- PARP1 inhibitory capacity of mitochondria-enriched fractions compared to unconjugated veliparib (PARP1 [7]): greater PARP1 inhibitory capacity
- cytotoxicity compared with unconjugated veliparib ([8]; P<0.05): significantly less toxic
- concentration at which neurotoxicity (defined as >10% cell death) was seen [8]: 10 µM
- LDH release after OGD (primary cortical neurons [9]; 10 nM, 2 h OGD, then 24 h, mean±SD, vehicle 38.0±2.5%): 12.4±3.1%
- reduction of OGD-induced cell death vs. vehicle (primary cortical neurons [9]; 10 nM, 2 h OGD, then 24 h normal culture): 67%
- effect on OGD-induced cell death at low nanomolar concentrations (primary cortical neurons [9]; 2 h OGD, then 24 h): significantly attenuated OGD-induced cell death
- protection against OGD at concentrations >100 nM (primary cortical neurons [9]): no additional protection

Structure (SMILES): CC1(c2nc3c(C(N)=O)cccc3[nH]2)CCCN1 (stereo in doubt) [veliparib, 1,2-[(S)-2-methylpyrrolidin-2-yl]-1H-benzimidazole-4-carboxamide, reference compound]
- effect on mtDNA lesions compared to vehicle irradiated cells [2]: no effect
- survival after IR [4]: 57.1%
- mitochondrial NAD+ stores after OGD (primary cortical neurons [5]): preserve mitochondrial NAD^+ stores
- effect on glutamate-induced ferroptosis (HT22 cells): inhibit glutamate-induced ferroptosis
- PAR immunofluorescence after OGD (confocal) (primary cortical neurons [6]): reduction of PAR immunofluorescence
- concentration at which neurotoxicity (defined as >10% cell death) was seen [8]: 1 µM
- protection against OGD at concentrations >100 nM (primary cortical neurons [9]): no additional protection

Source: US11090389B2, “Mitochondrially targeted PARP inhibitor, and uses thereof” (University of Pittsburgh—Of the Commonwealth System of …, priority 2016, dated 2021)
